Data from patent publication US8344009B2, “Substituted phenoxy thiazolidinediones as estrogen related receptor-á modulators” (priority 2007, dated 2013).
Marks after values point to notes of the source that are not given here.

Experiments:
Type in all cases: in vivo
AKR/J mice = test: AKR/J mouse obesity model; conditions: for 3-hydroxy-butyrate / % body fat / FFA (Free Fatty Acids): NEFA (Non Esterified Fatty Acids) / Glucose / Lean Mass / Triglyceride / Insulin / Total body fat: five days; for Insulin: plasma; for Total body fat: high fat diet, Q-NMR
Experimental: AKR/J mice are a polygenic model of diet-induced obesity characterized by hypertriglyceridemia and hyperinsulinemia. AKR/J mice were received at seven weeks of age and allowed to acclimate for one week and then placed on high fat diet (45% of the calories from fat) for five weeks. Animals were treated for five days with 3 mpk (mg/kg) and 30 mpk Compound 1 (Example 1) given orally twice a day. Food intake was measured at day four. On day five, prior to necropsies, body weight was recorded and body composition was measured by Q-NMR (Quantitative Nuclear Magnetic Resonance). Animals were anesthetized with carbon dioxide and blood was collected by cardiac puncture. Plasma was obtained by centrifugation and used to determine circulating insulin levels and clinical chemistries, including liver functions tests, using commercially available kits as per manufacturers instructions. Several tissues were harvested, frozen in liquid nitrogen and stored at −80° C. for further use.

ZDF fa/fa male rats [1] = test: ZDF diabetic rat model (3, 10, 30 mpk); conditions: for % Fat Day 18: Q-NMR; for FFA (NEFA) / Glucose / Triglycerides / cholesterol / ketone: 26 day ZDF rat efficacy study; for circulating glucose levels upon intraperitoneal delivery of insulin (ITT): FIG. 4, ITT at day 11
Excerpt: The ZDF rat is a monogenic model of Type II Diabetes. […] This mutation results in a hyperphagic phenotype and the rodent develops obesity, hyperlipidemia, fasting hyperglycemia and Type II Diabetes. The model at 7 weeks of age develops hyperinsulinemia followed by a loss of glucose stimulated insulin secretion due to beta islet failure. Fifty ZDF fa/fa male rats were received at four weeks of age and allowed to acclimate for one week. At five week of age the animals were single housed in cages in a temperature-controlled room with 12-hour light/dark cycle. They were allowed ad libitum access to water and food and throughout the study were maintained on a Purina 5008 diet. Animals were sorted into five groups based first on glucose levels and then at body weight (average fed glucose levels and body weight at 7 weeks of age were 488 mg/dL and 282 grams, respectively). Animals were given Compound 1 orally once a day for 25 days in the morning at 3 mpk, 10 mpk and 30 mpk. A separate group was dosed daily with vehicle. The vehicle used for Compound 1 in this study consisted of 15% VE-TEPG, 30% PEG400 and 55% water. Food intake, body weight, glucose, insulin, triglyceride and free fatty acid levels were monitored throughout the study using blood collected from the tail vein. At day 11 of the study an insulin tolerance test (ITT) was done to evaluate peripheral insulin sensitivity. On day 19 an OGTT was done to assess glucose disposal rates. […] On the day of the necropsy the rats were bled through the orbital sinus under CO2:O2 anesthesia. Animals were sacrificed and several tissues were collected, frozen in liquid nitrogen and stored at −80° C. Serum plasma samples were prepared by centrifugation in EDTA containing tubes, transferred into 96 well plates and stored at −80° C.

ZDF fa/fa male rats [2] = test: ZDF diabetic rat model at 0.08, 0.4, 2 and 10 mpk; conditions: for % Hb1Ac / FFA (NEFA) / Glucose / Triglycerides / cholesterol / ketone: 28 day ZDF efficacy study; for circulating glucose levels upon intraperitoneal delivery of insulin (ITT): FIG. 10
Excerpt: Briefly, sixty-five ZDF fa/fa male rats were received at four weeks of age and allowed to acclimate for one week. At five week of age the animals were single housed in cages in a temperature-controlled room with 12-hour light/dark cycle. They were allowed ad libitum access to water and food and throughout the study were maintained on a Purina 5008 diet. […] Animals were given Compound 1 orally once a day for 28 days in the morning at 0.08, 0.4, 2.0 and 10 mpk. The vehicle used for Compound 1 in this study consisted of 15% VE-TEPG, 30% PEG400 and 55% water. Food intake, body weight, glucose, insulin, triglyceride and free fatty acid levels were monitored throughout the study using blood collected from the tail vein. At day 16 of the study an insulin tolerance test (ITT) was done to evaluate peripheral insulin sensitivity. On day 22 an OGTT was done to assess glucose disposal rates. On the day of the necropsy the rats were bled through the orbital sinus under CO2:O2 anesthesia. Animals were sacrificed and several tissues were collected, frozen in liquid nitrogen and stored at −80° C. Serum plasma samples were prepared by centrifugation in EDTA containing tubes, transferred into 96 well plates and stored at −80° C.

## COc1cc(/C=C2\SC(=O)NC2=O)ccc1Oc1ccc(C#N)cc1C(F)(F)F [Compound 1, 4-[4-(2,4-Dioxo-thiazolidin-5-ylidenemethyl)-2-methoxy-phenoxy]-3-trifluoromethyl-benzonitrile]
AKR/J mice; 3 mpk orally twice a day
  3-hydroxy-butyrate: 8.3 ± 0.9 ×10−5
  % body fat: 12.7 ± 0.8%
  FFA (Free Fatty Acids): NEFA (Non Esterified Fatty Acids): 0.59 ± 0.07 mM
  Glucose: 165.0 ± 5.0 mg/dL
  Lean Mass: 20.2 ± 0.3 g
  Triglyceride: 160.0 ± 18.9 mg/dL
  Insulin: 9.6 ± 1.5 ng/mL
AKR/J mice; 30 mpk orally twice a day
  3-hydroxy-butyrate: 12.6 ± 1.8 ×10−5
  % body fat: 9.3 ± 0.6 %
  FFA (Free Fatty Acids): NEFA (Non Esterified Fatty Acids): 0.41 ± 0.05 mM
  Glucose: 185.0 ± 10.01 mg/dL
  Lean Mass: 20.0 ± 0.2 g
  Triglyceride: 80.0 ± 9.8 mg/dL
  Insulin: 2.8 ± 0.8 ng/mL
AKR/J mice; AKR/J mice, 3 mpk orally twice a day
  Total body fat: 3.87 ± 0.29 g
AKR/J mice; AKR/J mice, 30 mpk orally twice a day
  Total body fat: 2.7 ± 0.2 g
AKR/J mice; FIG. 1, AKR/J mice, 3 and 30 mpk twice a day, day five
  body weight: reduces body weight
AKR/J mice; FIG. 1, AKR/J mice, 3 and 30 mpk twice a day, day four
  food intake: reduces food intake
ZDF fa/fa male rats [1]; 3 mpk orally once a day
  Body weight change (0-25 day): 62.7*
  Total food intake (0-25 days): 727
  % Fat Day 18: 58** %
ZDF fa/fa male rats [1]; 3 mpk
  FFA (NEFA): 0.65 mM
  Glucose: 584.88 mg/dL
  Triglycerides: 596.33 mg/dL
  cholesterol: 145.70 mg/dL
  ketone: 183.97 µmol/L
ZDF fa/fa male rats [1]; 10 mpk orally once a day
  Body weight change (0-25 day): 49.3
  Total food intake (0-25 days): 720
  % Fat Day 18: 59** %
ZDF fa/fa male rats [1]; 10 mpk
  FFA (NEFA): 0.54 mM
  Glucose: 549.63 mg/dL
  Triglycerides: 402.39** mg/dL
  cholesterol: 156.08* mg/dL
  ketone: 144.61 µmol/L
ZDF fa/fa male rats [1]; 30 mpk orally once a day
  Body weight change (0-25 day): 65.3*
  Total food intake (0-25 days): 703**
  % Fat Day 18: 60*** %
ZDF fa/fa male rats [1]; 30 mpk
  FFA (NEFA): 0.48 mM
  Glucose: 545.64 mg/dL
  Triglycerides: 320.94*** mg/dL
  cholesterol: 169.92** mg/dL
  ketone: 134.84* umol/L
ZDF fa/fa male rats [1]; FIG. 3, versus vehicle control
  fed free fatty acid levels: reduces
  fed triglyceride levels: reduces
ZDF fa/fa male rats [1]
  circulating glucose levels upon intraperitoneal delivery of insulin (ITT): reduction in circulating glucose levels
ZDF fa/fa male rats [1]; listed as compound 1
  circulating glucose levels upon intraperitoneal delivery of insulin (ITT): normalizing glucose levels at the 30 minute time point
ZDF fa/fa male rats [1]; FIG. 4 right panel, 0-60 and 0-120 minute time points
  AUC of glucose during the ITT: reduction of AUC of glucose
ZDF fa/fa male rats [1]; FIG. 5, after a 16 hour fast
  fasting glucose levels: reduction in fasting glucose levels
ZDF fa/fa male rats [1]; FIG. 6, OGTT day 19
  plasma glucose following an oral glucose tolerance test: lowering fasting plasma glucose
ZDF fa/fa male rats [1]; FIG. 7
  insulin release levels following an oral glucose tolerance test: increase on insulin release levels
ZDF fa/fa male rats [1]; FIG. 8, after 26 days treatment
  Hb1Ac levels: reduction in Hb1Ac levels
ZDF fa/fa male rats [1]; FIG. 8, first three weeks of the study
  fed glucose levels: lowering of fed glucose levels
ZDF fa/fa male rats [1]; FIG. 9
  fed plasma insulin levels: increasing fed plasma insulin levels
  pancreatic insulin content: increasing
ZDF fa/fa male rats [2]; 0.08 mpk orally once a day
  Body weight change (0-28 day): 71.7
  Total food intake (0-28 days): 804.5
ZDF fa/fa male rats [2]; 0.08 mpk
  % Hb1Ac: 10.1%
  FFA (NEFA): 1.2 mM
  Glucose: 444 mg/dL
  Triglycerides: 770 mg/dL
  cholesterol: 118 mg/dL
  ketone: 162 µmol/L
ZDF fa/fa male rats [2]; 0.4 mpk orally once a day
  Body weight change (0-28 day): 61.9
  Total food intake (0-28 days): 792.3
ZDF fa/fa male rats [2]; 0.4 mpk
  % Hb1Ac: 10.0%
  FFA (NEFA): 0.61 mM
  Glucose: 419 mg/dL
  Triglycerides: 672 mg/dL
  cholesterol: 119 mg/dL
  ketone: 113 µmol/L
ZDF fa/fa male rats [2]; 2.0 mpk orally once a day
  Body weight change (0-28 day): 80.4
  Total food intake (0-28 days): 792.6
ZDF fa/fa male rats [2]; 2.0 mpk
  % Hb1Ac: 8.8%
  FFA (NEFA): 0.87 mM
  Glucose: 376 mg/dL
  Triglycerides: 605 mg/dL
  cholesterol: 117 mg/dL
  ketone: 95* umol/L
ZDF fa/fa male rats [2]; 10 mpk orally once a day
  Body weight change (0-28 day): 95.4
  Total food intake (0-28 days): 771.4
ZDF fa/fa male rats [2]; 10.0 mpk
  % Hb1Ac: 7.7%
  FFA (NEFA): 0.75 mM
  Glucose: 274* mg/dL
  Triglycerides: 506 mg/dL
  cholesterol: 121 mg/dL
  ketone: 85* umol/L
ZDF fa/fa male rats [2]
  circulating glucose levels upon intraperitoneal delivery of insulin (ITT): reduction in circulating glucose levels
ZDF fa/fa male rats [2]; listed as compound 1
  circulating glucose levels upon intraperitoneal delivery of insulin (ITT): normalizing glucose levels at the 30 minute time point
ZDF fa/fa male rats [2]; FIG. 10 right panel, 0-60 and 0-120 minute time point
  AUC of glucose during the ITT: reduction of AUC of glucose
ZDF fa/fa male rats [2]; FIG. 11, after a 4 and 16 hour fast
  fasting glucose levels: reduction in fasting glucose levels
ZDF fa/fa male rats [2]; FIG. 12, OGTT day 22
  plasma glucose following an oral glucose tolerance test: reducing fasting plasma glucose
ZDF fa/fa male rats [2]; FIG. 13, first three weeks of the study
  fed plasma glucose levels: lowering of fed plasma glucose levels
